Results taken from ChEMBL document CHEMBL4507305, “Data for DCP probe TP-024” (2021).

Experiments:
[1] = target: Mast/stem cell growth factor receptor Kit (Homo sapiens) (UniProt P10721); settings: Compound concentration 1000.0 nM
[2] = target: Ribosomal protein S6 kinase alpha-5 (Homo sapiens) (UniProt O75582); settings: Compound concentration 1000.0 nM
[3] = target: Receptor tyrosine-protein kinase erbB-3 (Homo sapiens) (UniProt P21860); settings: Compound concentration 1000.0 nM
[4] = target: Serine/threonine-protein kinase/endoribonuclease IRE1 (Homo sapiens) (UniProt O75460); settings: Compound concentration 1000.0 nM
[5] = organism: Rattus norvegicus; settings: Compound concentration 10.0 uM
[6] = target: Phosphatidylinositol 4-phosphate 3-kinase C2 domain-containing subunit beta (Homo sapiens) (UniProt O00750); settings: Compound concentration 1000.0 nM
[7] = target: Ribosomal protein S6 kinase alpha-4 (Homo sapiens) (UniProt O75676); settings: Compound concentration 1000.0 nM
[8] = target: Mitogen-activated protein kinase kinase kinase 19 (Homo sapiens) (UniProt Q56UN5); settings: Compound concentration 1000.0 nM
[9] = target: Serine/threonine-protein kinase PLK3 (Homo sapiens) (UniProt Q9H4B4); settings: Compound concentration 1000.0 nM
[10] = target: Tyrosine-protein kinase Tec (Homo sapiens) (UniProt P42680); settings: Compound concentration 1000.0 nM
[11] = target: Tyrosine-protein kinase CSK (Homo sapiens) (UniProt P41240); settings: Compound concentration 1000.0 nM
[12] = target: Sodium-dependent serotonin transporter (Homo sapiens) (UniProt P31645); settings: Compound concentration 10.0 uM
[13] = target: SRSF protein kinase 2 (Homo sapiens) (UniProt P78362); settings: Compound concentration 1000.0 nM
[14] = target: Serine/threonine-protein kinase TAO1 (Homo sapiens) (UniProt Q7L7X3); settings: Compound concentration 1000.0 nM
[15] = target: Homeodomain-interacting protein kinase 4 (Homo sapiens) (UniProt Q8NE63); settings: Compound concentration 1000.0 nM
[16] = target: Tyrosine-protein kinase receptor TYRO3 (Homo sapiens) (UniProt Q06418); settings: Compound concentration 1000.0 nM
[17] = target: Citron Rho-interacting kinase (Homo sapiens) (UniProt O14578); settings: Compound concentration 1000.0 nM
[18] = target: Serine/threonine-protein kinase PAK 1 (Homo sapiens) (UniProt Q13153); settings: Compound concentration 1000.0 nM
[19] = target: Dual specificity tyrosine-phosphorylation-regulated kinase 1A (Homo sapiens) (UniProt Q13627); settings: Compound concentration 1000.0 nM
[20] = target: cAMP-dependent protein kinase catalytic subunit PRKX (Homo sapiens) (UniProt P51817); settings: Compound concentration 1000.0 nM
[21] = target: Protein kinase C theta type (Homo sapiens) (UniProt Q04759); settings: Compound concentration 1000.0 nM
[22] = target: Cyclin-G-associated kinase (Homo sapiens) (UniProt O14976); settings: Compound concentration 1000.0 nM
[23] = tested on: Phosphatidylinositol 4,5-bisphosphate 3-kinase catalytic subunit alpha isoform (Homo sapiens), P42336 [C420R]; settings: Compound concentration 1000.0 nM
[24] = target: GABA-A receptor; anion channel (Rattus norvegicus) (UniProt O09028+P15431+P18506+P18508+P19969+P20236+P23574+P23576+P28471+P28473+P30191+P62813+P63079+P63138+Q91ZM7+Q9ES14); settings: Compound concentration 10.0 uM
[25] = target: G protein-coupled receptor kinase 3 (Homo sapiens) (UniProt P35626); settings: Compound concentration 1000.0 nM
[26] = target: Epidermal growth factor receptor (Homo sapiens) (UniProt P00533); settings: Compound concentration 1000.0 nM
[27] = target: Phosphorylase b kinase regulatory subunit alpha, liver isoform (Homo sapiens) (UniProt P46019); settings: Compound concentration 1000.0 nM
[28] = target: Ribosomal protein S6 kinase beta-1 (Homo sapiens) (UniProt P23443); settings: Compound concentration 1000.0 nM
[29] = target: MAP kinase-interacting serine/threonine-protein kinase 1 (Homo sapiens) (UniProt Q9BUB5); settings: Compound concentration 1000.0 nM
[30] = target: Platelet-derived growth factor receptor alpha (Homo sapiens) (UniProt P16234); settings: Compound concentration 1000.0 nM
[31] = target: Alpha-2A adrenergic receptor (Homo sapiens) (UniProt P08913); settings: Compound concentration 10.0 uM
[32] = target: Discoidin domain-containing receptor 2 (Homo sapiens) (UniProt Q16832); settings: Compound concentration 1000.0 nM
[33] = target: Calcium/calmodulin-dependent protein kinase type II subunit beta (Homo sapiens) (UniProt Q13554); settings: Compound concentration 1000.0 nM
[34] = target: Serine/threonine-protein kinase 38-like (Homo sapiens) (UniProt Q9Y2H1); settings: Compound concentration 1000.0 nM
[35] = target: Serine/threonine-protein kinase 32C (Homo sapiens) (UniProt Q86UX6); settings: Compound concentration 1000.0 nM
[36] = tested on: Phosphatidylinositol 4,5-bisphosphate 3-kinase catalytic subunit alpha isoform (Homo sapiens), P42336 [E545A]; settings: Compound concentration 1000.0 nM
[37] = target: Mitogen-activated protein kinase kinase kinase 1 (Homo sapiens) (UniProt Q13233); settings: Compound concentration 1000.0 nM
[38] = target: Muscarinic acetylcholine receptor M4 (Homo sapiens) (UniProt P08173); settings: Compound concentration 10.0 uM
[39] = target: Serine/threonine-protein kinase SBK1 (Homo sapiens) (UniProt Q52WX2); settings: Compound concentration 1000.0 nM
[40] = target: Histamine H1 receptor (Homo sapiens) (UniProt P35367); settings: Compound concentration 10.0 uM
[41] = target: Activated CDC42 kinase 1 (Homo sapiens) (UniProt Q07912); settings: Compound concentration 1000.0 nM
[42] = target: Myosin-IIIa (Homo sapiens) (UniProt Q8NEV4); settings: Compound concentration 1000.0 nM
[43] = target: Ribosomal protein S6 kinase alpha-1 (Homo sapiens) (UniProt Q15418); settings: Compound concentration 1000.0 nM
[44] = target: cGMP-dependent protein kinase 1 (Homo sapiens) (UniProt Q13976); settings: Compound concentration 1000.0 nM

Sequence of Phosphatidylinositol 4-phosphate 3-kinase C2 domain-containing subunit beta (Homo sapiens) (O00750 whole entry, the tested form may be a part): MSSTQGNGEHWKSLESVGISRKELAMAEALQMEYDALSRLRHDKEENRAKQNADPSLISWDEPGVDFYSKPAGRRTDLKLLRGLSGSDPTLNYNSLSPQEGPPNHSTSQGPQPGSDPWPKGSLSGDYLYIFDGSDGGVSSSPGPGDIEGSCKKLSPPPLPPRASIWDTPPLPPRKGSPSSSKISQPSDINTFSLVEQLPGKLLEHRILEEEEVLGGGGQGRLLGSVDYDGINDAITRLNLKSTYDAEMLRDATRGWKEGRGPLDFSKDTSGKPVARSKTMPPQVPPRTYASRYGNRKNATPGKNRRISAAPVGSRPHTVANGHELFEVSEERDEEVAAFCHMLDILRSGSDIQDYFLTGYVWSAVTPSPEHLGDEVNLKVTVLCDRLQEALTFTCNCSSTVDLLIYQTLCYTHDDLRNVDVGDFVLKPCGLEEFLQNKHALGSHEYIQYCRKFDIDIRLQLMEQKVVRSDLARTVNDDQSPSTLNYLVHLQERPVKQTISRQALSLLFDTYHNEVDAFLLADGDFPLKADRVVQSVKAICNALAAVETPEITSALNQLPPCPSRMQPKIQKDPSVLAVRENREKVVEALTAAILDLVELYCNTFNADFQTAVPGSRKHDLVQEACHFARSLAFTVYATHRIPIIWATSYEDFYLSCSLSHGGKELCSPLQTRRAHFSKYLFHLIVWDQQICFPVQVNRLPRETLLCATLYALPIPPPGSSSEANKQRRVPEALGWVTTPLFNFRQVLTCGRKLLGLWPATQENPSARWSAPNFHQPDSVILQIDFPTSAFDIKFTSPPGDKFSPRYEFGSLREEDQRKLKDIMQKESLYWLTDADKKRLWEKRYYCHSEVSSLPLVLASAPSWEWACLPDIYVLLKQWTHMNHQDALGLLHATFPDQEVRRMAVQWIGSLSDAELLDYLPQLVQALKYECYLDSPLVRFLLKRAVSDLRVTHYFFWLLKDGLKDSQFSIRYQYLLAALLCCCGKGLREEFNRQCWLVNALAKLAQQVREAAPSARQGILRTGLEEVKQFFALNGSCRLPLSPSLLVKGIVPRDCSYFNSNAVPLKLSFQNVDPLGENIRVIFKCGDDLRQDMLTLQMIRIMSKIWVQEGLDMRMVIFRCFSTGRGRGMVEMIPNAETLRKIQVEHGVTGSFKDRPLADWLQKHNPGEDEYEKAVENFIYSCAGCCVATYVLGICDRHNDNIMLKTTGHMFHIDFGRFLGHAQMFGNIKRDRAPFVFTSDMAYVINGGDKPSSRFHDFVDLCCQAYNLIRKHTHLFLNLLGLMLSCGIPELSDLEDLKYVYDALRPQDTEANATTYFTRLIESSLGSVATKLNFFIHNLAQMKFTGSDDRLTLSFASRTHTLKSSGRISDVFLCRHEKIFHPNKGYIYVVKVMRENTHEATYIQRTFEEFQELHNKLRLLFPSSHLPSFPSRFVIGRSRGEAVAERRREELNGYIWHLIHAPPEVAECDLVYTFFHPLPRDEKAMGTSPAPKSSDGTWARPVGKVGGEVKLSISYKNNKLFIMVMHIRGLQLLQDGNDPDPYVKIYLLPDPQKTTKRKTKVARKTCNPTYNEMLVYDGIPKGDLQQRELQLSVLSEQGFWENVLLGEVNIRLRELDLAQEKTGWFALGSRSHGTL
Sequence of Serine/threonine-protein kinase/endoribonuclease IRE1 (Homo sapiens) (O75460 19-977 limits assumed): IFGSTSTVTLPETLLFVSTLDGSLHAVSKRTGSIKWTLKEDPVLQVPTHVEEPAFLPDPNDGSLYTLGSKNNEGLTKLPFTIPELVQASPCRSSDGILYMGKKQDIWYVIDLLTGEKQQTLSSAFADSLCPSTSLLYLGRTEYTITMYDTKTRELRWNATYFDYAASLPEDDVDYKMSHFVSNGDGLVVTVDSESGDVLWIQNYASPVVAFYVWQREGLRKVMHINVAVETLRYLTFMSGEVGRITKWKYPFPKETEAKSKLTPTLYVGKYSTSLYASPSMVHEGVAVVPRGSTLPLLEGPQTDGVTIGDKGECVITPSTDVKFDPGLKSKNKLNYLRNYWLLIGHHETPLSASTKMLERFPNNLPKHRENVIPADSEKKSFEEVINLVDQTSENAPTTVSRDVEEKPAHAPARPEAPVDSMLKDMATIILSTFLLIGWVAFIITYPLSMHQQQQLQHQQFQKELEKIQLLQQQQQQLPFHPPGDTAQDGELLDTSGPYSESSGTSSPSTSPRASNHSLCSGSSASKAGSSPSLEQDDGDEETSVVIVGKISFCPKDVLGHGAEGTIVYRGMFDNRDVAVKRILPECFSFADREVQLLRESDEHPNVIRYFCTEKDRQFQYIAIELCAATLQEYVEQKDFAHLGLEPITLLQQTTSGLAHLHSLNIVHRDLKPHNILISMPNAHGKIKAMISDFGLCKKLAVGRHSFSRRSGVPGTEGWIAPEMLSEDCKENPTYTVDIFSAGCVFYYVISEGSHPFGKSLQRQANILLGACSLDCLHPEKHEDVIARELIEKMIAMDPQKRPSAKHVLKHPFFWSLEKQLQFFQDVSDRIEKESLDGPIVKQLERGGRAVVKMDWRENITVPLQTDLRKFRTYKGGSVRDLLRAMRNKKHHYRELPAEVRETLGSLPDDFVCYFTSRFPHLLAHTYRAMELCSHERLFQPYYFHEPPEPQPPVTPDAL
Sequence of Sodium-dependent serotonin transporter (Homo sapiens) (P31645 whole entry, looked up): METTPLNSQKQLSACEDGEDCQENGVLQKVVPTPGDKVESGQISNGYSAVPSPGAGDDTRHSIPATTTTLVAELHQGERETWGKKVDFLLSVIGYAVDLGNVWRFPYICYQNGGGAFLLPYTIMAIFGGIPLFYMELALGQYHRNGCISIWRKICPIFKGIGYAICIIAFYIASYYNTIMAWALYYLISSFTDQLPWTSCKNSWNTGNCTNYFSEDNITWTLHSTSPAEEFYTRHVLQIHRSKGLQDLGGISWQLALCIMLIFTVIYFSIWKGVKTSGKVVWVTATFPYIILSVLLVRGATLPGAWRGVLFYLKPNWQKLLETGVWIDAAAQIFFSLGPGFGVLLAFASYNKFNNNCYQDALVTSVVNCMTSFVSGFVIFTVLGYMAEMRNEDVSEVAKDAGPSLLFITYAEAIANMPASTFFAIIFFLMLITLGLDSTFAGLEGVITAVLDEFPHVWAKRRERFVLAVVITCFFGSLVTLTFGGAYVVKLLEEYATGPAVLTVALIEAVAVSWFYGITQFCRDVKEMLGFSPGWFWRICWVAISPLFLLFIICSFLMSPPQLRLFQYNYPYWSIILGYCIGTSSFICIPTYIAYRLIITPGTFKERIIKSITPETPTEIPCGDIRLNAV
Sequence of Phosphatidylinositol 4,5-bisphosphate 3-kinase catalytic subunit alpha isoform (Homo sapiens), P42336 [E545A] (P42336 whole entry E545A, canonical isoform): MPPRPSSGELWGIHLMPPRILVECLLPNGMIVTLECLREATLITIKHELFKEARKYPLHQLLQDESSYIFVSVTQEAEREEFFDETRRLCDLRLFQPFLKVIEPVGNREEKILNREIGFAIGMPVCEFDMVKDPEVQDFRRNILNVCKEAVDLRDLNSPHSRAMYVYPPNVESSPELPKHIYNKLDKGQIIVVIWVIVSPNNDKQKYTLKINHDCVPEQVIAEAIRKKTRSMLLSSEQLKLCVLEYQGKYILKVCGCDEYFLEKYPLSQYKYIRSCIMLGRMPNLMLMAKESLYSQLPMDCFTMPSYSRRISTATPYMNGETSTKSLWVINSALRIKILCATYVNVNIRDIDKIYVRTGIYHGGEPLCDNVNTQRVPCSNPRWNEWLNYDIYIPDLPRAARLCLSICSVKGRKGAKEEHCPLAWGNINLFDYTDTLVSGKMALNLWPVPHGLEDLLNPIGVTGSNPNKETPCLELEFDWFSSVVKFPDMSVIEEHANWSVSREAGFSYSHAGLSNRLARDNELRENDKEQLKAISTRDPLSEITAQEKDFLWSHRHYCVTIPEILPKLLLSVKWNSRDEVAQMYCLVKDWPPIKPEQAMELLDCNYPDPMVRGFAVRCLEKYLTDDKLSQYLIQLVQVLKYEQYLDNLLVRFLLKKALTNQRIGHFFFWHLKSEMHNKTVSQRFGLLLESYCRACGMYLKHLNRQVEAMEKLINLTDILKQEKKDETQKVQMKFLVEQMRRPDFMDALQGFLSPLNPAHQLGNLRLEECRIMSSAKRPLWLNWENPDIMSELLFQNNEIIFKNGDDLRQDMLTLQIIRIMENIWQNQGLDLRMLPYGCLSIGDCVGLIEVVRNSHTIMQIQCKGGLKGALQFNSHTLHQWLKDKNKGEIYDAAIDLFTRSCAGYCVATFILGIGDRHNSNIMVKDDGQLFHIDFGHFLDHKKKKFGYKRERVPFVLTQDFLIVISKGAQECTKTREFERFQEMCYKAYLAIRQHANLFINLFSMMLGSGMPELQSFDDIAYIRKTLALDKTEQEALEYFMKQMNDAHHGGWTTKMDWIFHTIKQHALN
Sequence of Serine/threonine-protein kinase 38-like (Homo sapiens) (Q9Y2H1 2-464 limits assumed): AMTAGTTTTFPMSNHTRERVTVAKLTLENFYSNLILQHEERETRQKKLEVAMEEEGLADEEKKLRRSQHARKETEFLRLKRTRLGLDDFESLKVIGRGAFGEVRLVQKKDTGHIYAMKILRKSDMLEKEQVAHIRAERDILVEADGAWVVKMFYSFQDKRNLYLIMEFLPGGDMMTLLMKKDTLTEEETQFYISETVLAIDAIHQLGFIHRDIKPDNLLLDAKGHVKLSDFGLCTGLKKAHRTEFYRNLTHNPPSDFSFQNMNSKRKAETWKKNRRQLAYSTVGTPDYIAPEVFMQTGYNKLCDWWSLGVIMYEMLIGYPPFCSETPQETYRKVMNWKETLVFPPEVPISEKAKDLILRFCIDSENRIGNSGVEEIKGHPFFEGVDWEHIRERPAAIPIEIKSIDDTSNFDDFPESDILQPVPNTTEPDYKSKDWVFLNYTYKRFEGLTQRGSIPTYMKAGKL
Sequence of Phosphatidylinositol 4,5-bisphosphate 3-kinase catalytic subunit alpha isoform (Homo sapiens), P42336 [C420R] (P42336 whole entry C420R, canonical isoform): as the sequence (P42336 whole entry E545A, canonical isoform) above, with C420R, A545E counted along it

Cc1nc(Cc2cccc(C(F)(F)F)c2)sc1-c1ccc(C(N)=O)nc1 [TP-024n]
residual activity [1]: 95% | residual activity [2]: 100% | residual activity [3]: 100% | residual activity [4]: 100% | inhibition [5]: 4.9% | residual activity [6]: 82% | residual activity [7]: 100% | residual activity [8]: 100% | residual activity [9]: 94% | residual activity [10]: 100% | residual activity [11]: 88% | inhibition [12]: -7.18% | residual activity [13]: 100% | residual activity [14]: 81% | residual activity [15]: 100% | residual activity [16]: 99% | residual activity [17]: 65% | residual activity [18]: 84% | residual activity [19]: 67% | residual activity [20]: 100% | residual activity [21]: 94% | residual activity [22]: 91% | residual activity [23]: 89% | inhibition [24]: 14.8% | residual activity [25]: 100% | residual activity [26]: 100% | residual activity [27]: 100% | residual activity [28]: 83% | residual activity [29]: 100% | residual activity [30]: 88% | inhibition [31]: 4.44% | residual activity [32]: 100% | residual activity [33]: 100% | residual activity [34]: 44% | residual activity [35]: 87% | residual activity [36]: 100% | residual activity [37]: 100% | inhibition [38]: 2.94% | residual activity [39]: 100% | inhibition [40]: 9.3% | residual activity [41]: 100% | residual activity [42]: 98% | residual activity [43]: 79% | residual activity [44]: 87%

Cc1cc(-n2nc(Cc3cc(F)cc(C(F)(F)F)c3)nc2C)ccc1C(N)=O [TP-024]
residual activity [1]: 95% | residual activity [2]: 97% | residual activity [3]: 100% | residual activity [4]: 100% | inhibition [5]: 7.23% | residual activity [6]: 87% | residual activity [7]: 100% | residual activity [8]: 98% | residual activity [9]: 100% | residual activity [10]: 100% | residual activity [11]: 97% | inhibition [12]: -1.29% | residual activity [13]: 100% | residual activity [14]: 91% | residual activity [15]: 100% | residual activity [16]: 100% | residual activity [17]: 95% | residual activity [18]: 95% | residual activity [19]: 92% | residual activity [20]: 100% | residual activity [21]: 100% | residual activity [22]: 100% | residual activity [23]: 93% | inhibition [24]: 12.8% | residual activity [25]: 100% | residual activity [26]: 100% | residual activity [27]: 100% | residual activity [28]: 100% | residual activity [29]: 100% | residual activity [30]: 100% | inhibition [31]: 8.93% | residual activity [32]: 100% | residual activity [33]: 100% | residual activity [34]: 49% | residual activity [35]: 100% | residual activity [36]: 100% | residual activity [37]: 100% | inhibition [38]: 6.9% | residual activity [39]: 98% | inhibition [40]: 8.06% | residual activity [41]: 100% | residual activity [42]: 100% | residual activity [43]: 100% | residual activity [44]: 100%
